According to patent publication US10201564B2, “Methods of using inhaled nitric oxide gas for treatment of acute respiratory distress syndrome in children” (Mallinckrodt Hospital Products IP Limited, priority 2014, dated 2019):

System: pediatric subjects with acute hypoxemic respiratory failure (AHRF)
Test: Pediatric AHRF study: adverse events, serious adverse events, deaths, discontinuations
Type: in vivo, human
Settings: 5 ppm
Experimental: This was a prospective, multicenter, randomized, double-blind, placebo-controlled, parallel-group study of the safety and efficacy of inhaled nitric oxide in pediatric subjects with acute hypoxemic respiratory failure (AHRF). The subjects were randomized to receive either 5 ppm inhaled nitric oxide or placebo.
Nitric Oxide for inhalation at 5 ppm was administered continuously into the inspiratory limb of the ventilator circuit in mechanically ventilated subjects using a blinded version of the INOvent® delivery system.
Subjects received 100% treatment gas (nitric oxide 5 ppm or placebo [nitrogen gas]) until Day 28 or extubation, whichever occurred first.
This was a prospective, multicenter, randomized, double-blind, placebo-controlled, Phase III study to assess the effects of nitric oxide for inhalation in the treatment of acute hypoxic respiratory failure (AHRF) in pediatric subjects. The study population consisted of male and female pediatric subjects, aged 44 weeks postconceptional age to 16 years age, who were admitted to the pediatric intensive care unit (PICU) and who required intubation because of AHRF. The inclusion/exclusion criteria are described in the Patients section below.
Standardized ventilatory management and weaning procedures were used. Ventilatory management was used based on an “open lung approach” using positive end-expiratory pressure (PEEP) to increase lung volume and limiting tidal volumes to reduce plateau pressures. Subjects received nitric oxide for inhalation at 5 ppm or placebo (100% Grade 5 nitrogen gas) into the inspiratory limb of the ventilator circuit using a blinded version of the INOvent® delivery system. The subjects were treated until Day 28 or extubation, whichever occurred first. Subjects were assessed daily using a spontaneous breathing trial, according to the institution's standard of care. Arterial blood gases (ABG), ventilator settings, methemoglobin, oxygenation index, systolic blood pressure, diastolic blood pressure, Pediatric Risk of Mortality (PRISM) III score, and subject positioning (prone or supine) were performed/recorded at specified times during the study. Selected centers also performed plasma cytokine assays, bronchoalveolar lavage fluid (BALF) assays, and a 6-month follow-up assessment.

[1] = AE in which death was the outcome
[2] = AE not suspected related to study treatment
[3] = AE suspected related to study treatment
[4] = AE with death as outcome, not suspected related to treatment

Compound: [N]=O [Nitric Oxide, nitric oxide]
- most frequently reported AEs: bradycardia and hypotension
- subjects who died during the follow-up period after treatment: 1
- subjects who died during treatment: 2
- frequency of treatment discontinuation due to AEs (1 of 26 subjects, placebo 6.9%): 3.9%
- subjects with serious AEs (SAEs) (1 of 26 subjects, placebo 27.6%): 3.9%
- subjects with severe AEs (2 subjects, placebo 34.5%): 7.7%
- subjects reporting AEs (16 of 26 subjects, placebo 72.4%): 61.5%
- Bradycardia [1]: 1 (3.8%) n (%)
- Brain edema [1]: 0 (0.0) n (%)
- Cardiac arrest [1]: 0 (0.0) n (%)
- Diabetic ketoacidosis [1]: 0 (0.0) n (%)
- Hemolytic anemia [1]: 0 (0.0) n (%)
- Hepatic failure [1]: 0 (0.0) n (%)
- Hypotension [1]: 1 (3.8%) n (%)
- Intracranial pressure increased [1]: 0 (0.0) n (%)
- Multi-organ failure [1]: 0 (0.0) n (%)
- Pancreatitis [1]: 0 (0.0) n (%)
- Pneumonia, aspergillus [1]: 0 (0.0) n (%)
- Pulmonary hemorrhage [1]: 0 (0.0) n (%)
- Renal failure [1]: 0 (0.0) n (%)
- Renal impairment [1]: 0 (0.0) n (%)
- Sepsis [1]: 0 (0.0) n (%)
- Abdominal distension [2]: 0 (0.0) n (%)
- Acidosis [2]: 1 (3.8%) n (%)
- Agitation [2]: 2 (7.7%) n (%)
- Anemia [2]: 1 (3.8%) n (%)
- Apnea [2]: 1 (3.8%) n (%)
- Arrhythmia [2]: 1 (3.8%) n (%)
- Ascites [2]: 1 (3.8%) n (%)
- Bacteremia [2]: 2 (7.7%) n (%)
- Bacteria, blood [2]: 1 (3.8%) n (%)
- Bacteria, sputum [2]: 0 (0.0) n (%)
- Bladder distension [2]: 0 (0.0) n (%)
- Bradycardia [2]: 3 (11.5%) n (%)
- Brain edema [2]: 0 (0.0) n (%)
- Bronchoalveolar lavage [2]: 1 (3.8%) n (%)
- C-reactive protein increased [2]: 0 (0.0) n (%)
- Cardiac arrest [2]: 0 (0.0) n (%)
- Cerebral artery occlusion [2]: 0 (0.0) n (%)
- Chest tube insertion [2]: 1 (3.8%) n (%)
- Deep vein thrombosis [2]: 2 (7.7%) n (%)
- Device failure [2]: 0 (0.0) n (%)
- Diabetic ketoacidosis [2]: 0 (0.0) n (%)
- Diarrhea [2]: 0 (0.0) n (%)
- Disseminated intravascular coagulation [2]: 0 (0.0) n (%)
- Empyema [2]: 0 (0.0) n (%)
- Feeding disorder [2]: 0 (0.0) n (%)
- Fungemia [2]: 1 (3.8%) n (%)
- Fungus culture positive [2]: 0 (0.0) n (%)
- Fungus urine test positive [2]: 0 (0.0) n (%)
- Gastrointestinal hemorrhage [2]: 0 (0.0) n (%)
- Generalized edema [2]: 0 (0.0) n (%)
- Grangrene [2]: 1 (3.8%) n (%)
- Hematuria [2]: 0 (0.0) n (%)
- Hemoglobinemia [2]: 1 (3.8%) n (%)
- Hemolytic anemia [2]: 0 (0.0) n (%)
- Hemopneumothorax [2]: 0 (0.0) n (%)
- Hemorrhage [2]: 0 (0.0) n (%)
- Hemothorax [2]: 0 (0.0) n (%)
- Hepatic failure [2]: 0 (0.0) n (%)
- Hepatosplenomegaly [2]: 1 (3.8%) n (%)
- Hyperammonemia [2]: 0 (0.0) n (%)
- Hypercalcemia [2]: 1 (3.8%) n (%)
- Hypercapnia [2]: 0 (0.0) n (%)
- Hyperchloremia [2]: 1 (3.8%) n (%)
- Hyperglycemia [2]: 1 (3.8%) n (%)
- Hyperkalemia [2]: 1 (3.8%) n (%)
- Hyperlipidemia [2]: 0 (0.0) n (%)
- Hypernatremia [2]: 2 (7.7%) n (%)
- Hypertension [2]: 0 (0.0) n (%)
- Hypocalcemia [2]: 1 (3.8%) n (%)
- Hypochloremia [2]: 0 (0.0) n (%)
- Hypokalemia [2]: 2 (7.7%) n (%)
- Hypotension [2]: 3 (11.5%) n (%)
- Hypothermia [2]: 0 (0.0) n (%)
- Hypoxia [2]: 0 (0.0) n (%)
- Intracranial pressure increased [2]: 0 (0.0) n (%)
- Labile blood pressure [2]: 0 (0.0) n (%)
- Leukocytosis [2]: 1 (3.8%) n (%)
- Lung infection, pseudomonal [2]: 0 (0.0) n (%)
- Medical device removal [2]: 0 (0.0) n (%)
- Metabolic acidosis [2]: 0 (0.0) n (%)
- Metabolic alkalosis [2]: 1 (3.8%) n (%)
- Multi-organ failure [2]: 0 (0.0) n (%)
- Ocular icterus [2]: 0 (0.0) n (%)
- Oliguria [2]: 0 (0.0) n (%)
- Oxygen saturation decreased [2]: 2 (7.7%) n (%)
- Pancreatitis [2]: 0 (0.0) n (%)
- Pleural effusion [2]: 0 (0.0) n (%)
- Pneumomediastinum [2]: 0 (0.0) n (%)
- Pneumonia [2]: 1 (3.8%) n (%)
- Pneumonia, aspergillus [2]: 0 (0.0) n (%)
- Pneumonia, staphylococcal [2]: 1 (3.8%) n (%)
- Pneumothorax [2]: 2 (7.7%) n (%)
- Pruritus [2]: 0 (0.0) n (%)
- Pseudomonal sepsis [2]: 1 (3.8%) n (%)
- Pulmonary hemorrhage [2]: 0 (0.0) n (%)
- Pulmonary hypertension [2]: 0 (0.0) n (%)
- Pyrexia [2]: 0 (0.0) n (%)
- Renal failure [2]: 1 (3.8%) n (%)
- Renal failure, acute [2]: 0 (0.0) n (%)
- Renal impairment [2]: 0 (0.0) n (%)
- Respiratory acidosis [2]: 0 (0.0) n (%)
- Respiratory failure [2]: 1 (3.8%) n (%)
- Sepsis [2]: 0 (0.0) n (%)
- Skin injury [2]: 0 (0.0) n (%)
- Subdural hematoma [2]: 0 (0.0) n (%)
- Thrombocythemia [2]: 1 (3.8%) n (%)
- Thrombocytopenia [2]: 0 (0.0) n (%)
- Tracheitis [2]: 2 (7.7%) n (%)
- Unevaluable event [2]: 2 (7.7%) n (%)
- Urinary tract infection [2]: 1 (3.8%) n (%)
- Urinary tract infection, fungal [2]: 1 (3.8%) n (%)
- Urine output decreased [2]: 1 (3.8%) n (%)
- White blood cell count increased [2]: 0 (0.0) n (%)
- Abdominal distension [3]: 0 (0.0) n (%)
- Acidosis [3]: 0 (0.0) n (%)
- Agitation [3]: 0 (0.0) n (%)
- Anemia [3]: 0 (0.0) n (%)
- Apnea [3]: 0 (0.0) n (%)
- Arrhythmia [3]: 0 (0.0) n (%)
- Ascites [3]: 0 (0.0) n (%)
- Bacteremia [3]: 0 (0.0) n (%)
- Bacteria, blood [3]: 0 (0.0) n (%)
- Bacteria, sputum [3]: 0 (0.0) n (%)
- Bladder distension [3]: 0 (0.0) n (%)
- Bradycardia [3]: 0 (0.0) n (%)
- Brain edema [3]: 0 (0.0) n (%)
- Bronchoalveolar lavage [3]: 0 (0.0) n (%)
- C-reactive protein increased [3]: 0 (0.0) n (%)
- Cardiac arrest [3]: 0 (0.0) n (%)
- Cerebral artery occlusion [3]: 0 (0.0) n (%)
- Chest tube insertion [3]: 0 (0.0) n (%)
- Deep vein thrombosis [3]: 0 (0.0) n (%)
- Device failure [3]: 0 (0.0) n (%)
- Diabetic ketoacidosis [3]: 0 (0.0) n (%)
- Diarrhea [3]: 0 (0.0) n (%)
- Disseminated intravascular coagulation [3]: 0 (0.0) n (%)
- Empyema [3]: 0 (0.0) n (%)
- Feeding disorder [3]: 0 (0.0) n (%)
- Fungemia [3]: 0 (0.0) n (%)
- Fungus culture positive [3]: 0 (0.0) n (%)
- Fungus urine test positive [3]: 0 (0.0) n (%)
- Gastrointestinal hemorrhage [3]: 0 (0.0) n (%)
- Generalized edema [3]: 0 (0.0) n (%)
- Grangrene [3]: 0 (0.0) n (%)
- Hematuria [3]: 0 (0.0) n (%)
- Hemoglobinemia [3]: 0 (0.0) n (%)
- Hemolytic anemia [3]: 0 (0.0) n (%)
- Hemopneumothorax [3]: 0 (0.0) n (%)
- Hemorrhage [3]: 0 (0.0) n (%)
- Hemothorax [3]: 0 (0.0) n (%)
- Hepatic failure [3]: 0 (0.0) n (%)
- Hepatosplenomegaly [3]: 0 (0.0) n (%)
- Hyperammonemia [3]: 0 (0.0) n (%)
- Hypercalcemia [3]: 0 (0.0) n (%)
- Hypercapnia [3]: 0 (0.0) n (%)
- Hyperchloremia [3]: 0 (0.0) n (%)
- Hyperglycemia [3]: 0 (0.0) n (%)
- Hyperkalemia [3]: 0 (0.0) n (%)
- Hyperlipidemia [3]: 0 (0.0) n (%)
- Hypernatremia [3]: 0 (0.0) n (%)
- Hypertension [3]: 0 (0.0) n (%)
- Hypocalcemia [3]: 0 (0.0) n (%)
- Hypochloremia [3]: 0 (0.0) n (%)
- Hypokalemia [3]: 0 (0.0) n (%)
- Hypotension [3]: 0 (0.0) n (%)
- Hypothermia [3]: 0 (0.0) n (%)
- Hypoxia [3]: 0 (0.0) n (%)
- Intracranial pressure increased [3]: 0 (0.0) n (%)
- Labile blood pressure [3]: 0 (0.0) n (%)
- Leukocytosis [3]: 0 (0.0) n (%)
- Lung infection, pseudomonal [3]: 0 (0.0) n (%)
- Medical device removal [3]: 0 (0.0) n (%)
- Metabolic acidosis [3]: 0 (0.0) n (%)
- Metabolic alkalosis [3]: 0 (0.0) n (%)
- Multi-organ failure [3]: 0 (0.0) n (%)
- Ocular icterus [3]: 0 (0.0) n (%)
- Oliguria [3]: 0 (0.0) n (%)
- Oxygen saturation decreased [3]: 0 (0.0) n (%)
- Pancreatitis [3]: 0 (0.0) n (%)
- Pleural effusion [3]: 0 (0.0) n (%)
- Pneumomediastinum [3]: 0 (0.0) n (%)
- Pneumonia [3]: 0 (0.0) n (%)
- Pneumonia, aspergillus [3]: 0 (0.0) n (%)
- Pneumonia, staphylococcal [3]: 0 (0.0) n (%)
- Pneumothorax [3]: 0 (0.0) n (%)
- Pruritus [3]: 0 (0.0) n (%)
- Pseudomonal sepsis [3]: 0 (0.0) n (%)
- Pulmonary hemorrhage [3]: 0 (0.0) n (%)
- Pulmonary hypertension [3]: 0 (0.0) n (%)
- Pyrexia [3]: 0 (0.0) n (%)
- Renal failure [3]: 0 (0.0) n (%)
- Renal failure, acute [3]: 0 (0.0) n (%)
- Renal impairment [3]: 0 (0.0) n (%)
- Respiratory acidosis [3]: 0 (0.0) n (%)
- Respiratory failure [3]: 0 (0.0) n (%)
- Sepsis [3]: 0 (0.0) n (%)
- Skin injury [3]: 0 (0.0) n (%)
- Subdural hematoma [3]: 0 (0.0) n (%)
- Thrombocythemia [3]: 0 (0.0) n (%)
- Thrombocytopenia [3]: 0 (0.0) n (%)
- Tracheitis [3]: 0 (0.0) n (%)
- Unevaluable event [3]: 0 (0.0) n (%)
- Urinary tract infection [3]: 0 (0.0) n (%)
- Urinary tract infection, fungal [3]: 0 (0.0) n (%)
- Urine output decreased [3]: 0 (0.0) n (%)
- White blood cell count increased [3]: 0 (0.0) n (%)
- Bradycardia [4]: 1 (3.8%) n (%)
- Brain edema [4]: 0 (0.0) n (%)
- Cardiac arrest [4]: 0 (0.0) n (%)
- Diabetic ketoacidosis [4]: 0 (0.0) n (%)
- Hemolytic anemia [4]: 0 (0.0) n (%)
